Data reported in paper PMC5733478, “A Non-imaging High Throughput Approach to Chemical Library Screening at the Unmodified Adenosine-A3 Receptor in Living Cells” (Frontiers in Pharmacology, 2017).
Structures can show the parent of a compound that is named as a salt. Where two headings read alike, the source gives them in different places.

Molecular target: T1, human A3AR (Homo sapiens, UniProt P0DMS8)
T1 construct: expressed in transfected cells
T1 sequence (P0DMS8 1-318): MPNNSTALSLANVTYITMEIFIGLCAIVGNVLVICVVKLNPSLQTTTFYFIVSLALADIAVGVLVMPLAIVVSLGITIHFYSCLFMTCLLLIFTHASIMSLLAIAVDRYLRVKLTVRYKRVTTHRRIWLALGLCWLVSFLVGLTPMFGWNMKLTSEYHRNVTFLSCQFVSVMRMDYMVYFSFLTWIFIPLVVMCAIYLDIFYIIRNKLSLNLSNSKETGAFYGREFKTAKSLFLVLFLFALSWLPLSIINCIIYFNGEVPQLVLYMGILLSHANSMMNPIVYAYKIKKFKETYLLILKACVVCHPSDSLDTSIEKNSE
Test: LOPAC library primary screen: single concentration (10 μM) inhibition of 25 nM CA200645 binding, PHERAstar FS

Row | Compound | % 25 nM CA200645 binding [%] | % 25 nM CA200645 binding (compounds tested at 10 µM, % of control wells (1% DMSO and 25 nM CA200645), whole live cells expressing the A3AR, mean ± SD, three experiments in duplicate) [%]
1 | C=CC[C@H](N)C(=O)O [L-allylglycine] | 98.5 ± 1.7 | 
2 | CCOC(=O)[N-]c1cn(N2CCOCC2)n[o+]1 [Molsidomine] | 91.8 ± 17.4 | 
3 | Cc1cc2c(C(C)C)c(O)c(O)c(C=O)c2c(O)c1-c1c(C)cc2c(C(C)C)c(O)c(O)c(C=O)c2c1O [Gossypol] | 54.1 ± 12.3 | 
4 | CCN(c1nc(N)c(C(=O)NC(=N)N)nc1Cl)C(C)C [5-(N-Ethyl-N-isopropyl)amiloride] | 94.1 ± 7.3 | 
5 | Cc1cn(C2CC(N=[N+]=[N-])C(CO)O2)c(=O)[nH]c1=O (centres unmarked) [3'-Azido-3'-deoxythymidine] | 82.3 ± 18.1 | 
6 | CNCCc1c[nH]c2ccc(O)cc12.O=C(O)C(=O)O | 111.6 ± 33.8 | 
7 | Cl.NCCc1ccc(O)cc1 [4-Hydroxyphenethylamine hydrochloride] | 98.7 ± 19.0 | 
8 | COc1ccccc1N1CCN(CCN2C(=O)CC3(CCCC3)CC2=O)CC1.Cl.Cl [BMY 7378 dihydrochloride] | 82.8 ± 23.0 | 
9 | CC(=O)OCC1=C(C(=O)O)N2C(=O)[C@@H](NC(=O)Cc3cccs3)[C@H]2SC1 [Cephalothin sodium] | 104.6 ± 12.0 | 
10 | C[N+]1(C)CCc2cc3c(cc2[C@H]1[C@@H]1OC(=O)c2c1ccc1c2OCO1)OCO3.[Br-] [(-)-Bicuculline methbromide, 1(S), 9(R)] | 67.4 ± 5.9 | 
11 | CC(C)NNC(=O)c1ccncc1.O=P(O)(O)O [Iproniazid phosphate] | 103.0 ± 5.6 | 
12 | Cc1nnc(SCC2=C(C(=O)O)N3C(=O)[C@@H](NC(=O)Cn4cnnn4)[C@H]3SC2)s1 [Cefazolin sodium] | 96.3 ± 4.6 | 
13 | CCCCCCC(=O)OC1CC(C)(C)NC(C)(C)C1.Cl [TMPH hydrochloride] | 95.1 ± 13.7 | 
14 | CSC(=N)N.CSC(=N)N.O=S(=O)(O)O [S-Methylisothiourea hemisulfate] | 112.2 ± 21.2 | 
15 | Br.CCCN(CCC)[C@@H]1CCc2ccc(O)cc2C1 [R-(+)-7-Hydroxy-DPAT hydrobromide] | 110.9 ± 7.0 | 
16 | Nc1nc(O)c2ncn(COC(CO)CO)c2n1 [Ganciclovir] | 96.3 ± 6.5 | 
17 | CC(C)(C)c1ccc(S(=O)(=O)/C=C/C#N)cc1 [Bay 11-7085] | 95.2 ± 7.7 | 
18 | c1ccc2c(CC3=NCCN3)cccc2c1 [Naphazoline hydrochloride] | 105.3 ± 13.5 | 
19 | COCCOc1cc2nc[nH]c(=O)c2cc1OCCOC [CP-380736] | 88.0 ± 4.4 | 
20 | CC(C)[C@@H]1CC[C@@H](C)C[C@@H]1P(=O)(c1ccccc1)c1ccccc1 [DPO-1] | 89.1 ± 3.8 | 
21 | CC(=O)O[C@]1(C(C)=O)CC[C@H]2[C@@H]3C=C(Cl)C4=CC(=O)[C@@H]5C[C@@H]5[C@]4(C)[C@H]3CC[C@@]21C [Cyproterone acetate] | 95.6 ± 2.1 | 
22 | CCCc1nn(C)c2c(=O)[nH]c(-c3cc(S(=O)(=O)N4CCN(C)CC4)ccc3OCC)nc12.O=C(O)CC(O)(CC(=O)O)C(=O)O [Sildenafil citrate salt] | 88.1 ± 8.0 | 
23 | Cc1cccc(C)c1OCC(C)N.Cl (centres unmarked) [Mexiletene hydrochloride] | 99.4 ± 6.9 | 
24 | O=C(O)c1nn(Cc2ccc(Cl)cc2Cl)c2ccccc12 [Lonidamine] | 94.6 ± 7.2 | 
25 | NCCc1c[nH]cn1 [Histamine dihydrochloride] | 102.0 ± 10.2 | 
26 | CC(C)C[C@H](NP(=O)([O-])O[C@H]1O[C@H](C)[C@@H](O)[C@H](O)[C@@H]1O)C(=O)N[C@@H](Cc1c[nH]c2ccccc12)C(=O)[O-].[Na+].[Na+] [Phosphoramidon disodium] |  | 101.2 ± 7.1
27 | CCc1ccc2c(-c3cccc(Cl)c3)nc(=O)n(CC)c2n1 [YM 976] | 93.5 ± 3.0 | 
28 | CC(N)c1cccc(Cl)c1Cl.Cl (racemic) | 100.4 ± 9.9 | 
29 | C[C@H](O)C(=O)C1=Nc2c(nc(N)[nH]c2=O)NC1 [Sepiapterin] | 97.4 ± 20.7 | 
